Experiment [1] deals with patients with unresectable pancreatic cancer. The conditions noted are these: Moore et al. 2007; cited from earlier work.
Experiment [2] concerns patients with metastatic pancreatic cancer. The following applies: first-line, Conroy et al. 2011; cited from earlier work.
The subject of experiment [3] is patients with locally advanced, unresectable, or metastatic pancreatic adenocarcinoma. The following applies: single agent, randomized trials; cited from earlier work.
Experiment [4] relates to patients with advanced/metastatic pancreatic cancer. Nature of the experiment: Ancillary pharmacogenomic study of AB07012, overall survival by gene expression predictor factors. It counts as in vivo, human. The conditions noted are these: full cohort with genomic information (n=119).
Experiment [5] relates to Ba/F3 cells expressing human or mouse wild-type c-Kit. The conditions noted are these: read-out: IC50, stem cell factor-induced proliferation and c-Kit tyrosine phosphorylation; cited from earlier work.
The test system of experiment [6] is Ba/F3 cells expressing PDGFR-α. The following applies: read-out: 1050, PDGF-BB-stimulated proliferation and PDGFR-α tyrosine phosphorylation; cited from earlier work.
Experiment [7] deals with discoidin domain receptor family member 1 (DDR1) kinase (Homo sapiens, UniProt Q08345). The conditions noted are these: cited from earlier work.
The test system of experiment [8] is human cord blood mast cells. The conditions noted are these: cited from earlier work.

The source of these data is patent publication US10238649B2 (AB SCIENCE, priority 2012, dated 2019).

Sequence of discoidin domain receptor family member 1 (DDR1) kinase (Q08345 19-913, species assumed): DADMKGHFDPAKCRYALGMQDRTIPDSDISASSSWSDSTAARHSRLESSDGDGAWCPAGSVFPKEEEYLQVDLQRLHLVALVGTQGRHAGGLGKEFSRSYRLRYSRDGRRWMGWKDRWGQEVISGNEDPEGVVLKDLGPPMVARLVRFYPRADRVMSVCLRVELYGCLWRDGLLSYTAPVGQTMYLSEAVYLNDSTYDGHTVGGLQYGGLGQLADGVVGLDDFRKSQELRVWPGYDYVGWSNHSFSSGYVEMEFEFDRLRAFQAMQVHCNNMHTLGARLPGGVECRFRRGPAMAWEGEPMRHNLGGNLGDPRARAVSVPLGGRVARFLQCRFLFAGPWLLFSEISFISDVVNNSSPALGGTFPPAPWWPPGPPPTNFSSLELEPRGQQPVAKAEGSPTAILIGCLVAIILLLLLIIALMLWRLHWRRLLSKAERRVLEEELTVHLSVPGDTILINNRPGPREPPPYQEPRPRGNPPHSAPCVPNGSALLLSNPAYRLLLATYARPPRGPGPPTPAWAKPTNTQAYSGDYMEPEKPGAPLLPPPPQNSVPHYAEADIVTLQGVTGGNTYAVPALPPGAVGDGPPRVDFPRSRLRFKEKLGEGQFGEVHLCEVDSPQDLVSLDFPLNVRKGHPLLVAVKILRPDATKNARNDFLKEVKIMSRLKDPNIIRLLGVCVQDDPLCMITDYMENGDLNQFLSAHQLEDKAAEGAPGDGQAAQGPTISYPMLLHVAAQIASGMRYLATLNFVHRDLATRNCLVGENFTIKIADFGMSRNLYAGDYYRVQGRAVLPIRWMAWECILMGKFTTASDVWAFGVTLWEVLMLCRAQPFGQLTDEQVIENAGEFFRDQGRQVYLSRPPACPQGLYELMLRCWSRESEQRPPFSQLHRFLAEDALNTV

`Nc1ccn(C2OC(CO)C(O)C2(F)F)c(=O)n1` (stereo not shown) [gemcitabine, 4-amino-1-[3,3-difluoro-4-hydroxy-5-(hydroxymethyl)tetrahydrofuran-2-yl]-1H-pyrimidin-2-one]: in experiment [1], the 1-year survival rate is 17% and the “median OS” value is 5.91 months. In experiment [2], the objective response rate was 9.4% and the “survival (months lived)” value is listed as 6.8 months. In experiment [3], the 12-month survival result is recorded as “approximately 20%” and the median survival result is “approximately 6 months”.

Turning to `Cc1ccc(NC(=O)c2ccc(CN3CCN(C)CC3)cc2)cc1Nc1nc(-c2cccnc2)cs1` [masitinib, 4-(4-methylpiperazin-1-ylmethyl)-N-[4-methyl-3-(4-pyridin-3ylthiazol-2-ylamino)phenyl]benzamide], the “median OS” value in experiment [4] is recorded as 7.7 months. Also, the results for the IC50 in experiment [5] and in experiment [6] were 150 ± 80 nM and 300 ± 5 nM, respectively. In addition, the “inhibition of DDR1 autophosphorylation” value in experiment [7] is on record as “pronounced inhibition”. For the same compound, the “FcεRI-mediated degranulation of human cord blood mast cells” value in experiment [8] is “inhibition”.

As to Folfirinox, in experiment [2], the objective response rate is given as 31.6% and the “survival (months lived)” value is 11.1 months.
